The subject of the assay is MX-1 breast xenograft, intrarenal, nude mice, tumor weight. Put plainly: NCI In Vivo Anticancer Drug Screen. Data for tumor model Human Mammary Carcinoma MX-1 Xenograft (intrarenal inoculation) in NU/NU BALB/C (nude) mice. The note with it: endpoint: mean tumor weight change, higher = larger tumour. The procedure, abridged: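 Mice w/ transplanted tumors, drug vs vehicle; endpoint survival or tumor size; value = T/C.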
(In general: Xenograft models place foreign cells or tissue in a host animal.)

Setting [1] is: dose: 30.0 mg/kg/injection, schedule: Q04DX003 (ip), vehicle: saline.
The mark [2] stands for this setting: dose: 50.0 mg/kg/injection, schedule: Q04DX003 (ip), vehicle: saline.
Where [3] appears, read: dose: 100.0 mg/kg/injection, schedule: Q04DX003 (ip), vehicle: saline.

SMILES strings stand for the structures. “And” between values parts separate entries of the source, which are not always exact repeats. Equal entries are not always repeated. Results filed as inconclusive are left out.

For `CN=C(N)c1ccc(N=C(N)c2ccc(C(N)=Nc3ccc(C(N)=NC)cc3)cc2)cc1`, the T/C reads like this: (dose: 15.0 mg/kg/injection, schedule: Q04DX003 (ip), vehicle: saline) 96 % of control; under setting [1], 118 % of control.

`CCOC(=O)c1c[nH]c2ccc3c(nc(C)n3C)c2c1=O`: the T/C reads like this: (dose: 100.0 mg/kg/injection, schedule: Q04DX003 (ip), vehicle: Klucel (hydroxypropylcellulose) (HPC)) 122 % of control; (dose: 200.0 mg/kg/injection, schedule: Q04DX003 (ip), vehicle: Klucel (hydroxypropylcellulose) (HPC)) 122 % of control; (dose: 400.0 mg/kg/injection, schedule: Q04DX003 (ip), vehicle: Klucel (hydroxypropylcellulose) (HPC)) 94 % of control; (dose: 800.0 mg/kg/injection, schedule: Q04DX003 (ip), vehicle: Klucel (hydroxypropylcellulose) (HPC)) 77 % of control.

In the case of `CC1[C@@H]2CC=C3[C@H]4CCC5Cc6nc7c(nc6C[C@@]5(C)C4CC(=O)[C@]32CO[C@]12OC(C)(C)CC2O)CC1CC[C@@H]2C3=C[C@H]4O[C@@]5(O[C@@](C)(CO)C[C@@H]5O)C(C)[C@@]4(O)[C@]3(C)[C@@H](O)CC2[C@]1(C)C7` (stereo partly drawn), the T/C is, setting by setting: (dose: 12.5 micrograms/kg/injection, schedule: Q04DX003 (ip), vehicle: saline + alcohol) 123 % of control; (dose: 25.0 micrograms/kg/injection, schedule: Q04DX003 (ip), vehicle: saline + alcohol) 78 % of control; (dose: 50.0 micrograms/kg/injection, schedule: Q04DX003 (ip), vehicle: saline + alcohol) 118 % of control; (dose: 100.0 micrograms/kg/injection, schedule: Q04DX003 (ip), vehicle: saline + alcohol) 100 % of control.

On to `O=NNc1cnccn1`, for which the T/C was 53 % of control and 74 % of control (dose: 12.5 mg/kg/injection, schedule: Q04DX003 (ip), vehicle: water); 26 % of control (2×) and 41 % of control (dose: 25.0 mg/kg/injection, schedule: Q04DX003 (ip), vehicle: water); 7 % of control and 8 % of control and 16 % of control (dose: 50.0 mg/kg/injection, schedule: Q04DX003 (ip), vehicle: water).

In the case of `CN(Cc1cnc2nc(N)nc(N)c2n1)c1c(Cl)cc(C(=O)NC(CCC(=O)O)C(=O)O)cc1Cl` (stereo not drawn), the T/C was 64 % of control (dose: 12.5 mg/kg/injection, schedule: Q01DX010 (sc), vehicle: Klucel (hydroxypropylcellulose) (HPC)); 25 % of control (dose: 25.0 mg/kg/injection, schedule: Q01DX010 (sc), vehicle: Klucel (hydroxypropylcellulose) (HPC)); -67 % of control (dose: 50.0 mg/kg/injection, schedule: Q01DX010 (sc), vehicle: Klucel (hydroxypropylcellulose) (HPC)).

Turning to `COc1cc2c(ccc3c4cc(OC)c(OC)cc4c[n+](C)c23)cc1O`, the T/C is 83 % of control (dose: 150.0 mg/kg/injection, schedule: Q04DX003 (sc), vehicle: saline); 74 % of control (dose: 300.0 mg/kg/injection, schedule: Q04DX003 (sc), vehicle: saline); 79 % of control (dose: 600.0 mg/kg/injection, schedule: Q04DX003 (sc), vehicle: saline); 68 % of control (dose: 1200.0 mg/kg/injection, schedule: Q04DX003 (sc), vehicle: saline).

On to `NCCSC(C[N+](=O)[O-])c1ccccc1Cl` (stereo not drawn), for which the T/C by setting is: (dose: 25.0 mg/kg/injection, schedule: Q04DX003 (ip), vehicle: saline) 86 % of control; under setting [2], 86 % of control; under setting [3], 85 % of control.

On to `Cc1nn(CCO)c(C)c1N=[N+]([O-])c1c(C)nn(CCO)c1C`, for which the T/C runs as follows: (dose: 300.0 mg/kg/injection, schedule: Q04DX003 (sc), vehicle: Klucel (hydroxypropylcellulose) (HPC)) 109 % of control; (dose: 600.0 mg/kg/injection, schedule: Q04DX003 (sc), vehicle: Klucel (hydroxypropylcellulose) (HPC)) 85 % of control; (dose: 1200.0 mg/kg/injection, schedule: Q04DX003 (sc), vehicle: Klucel (hydroxypropylcellulose) (HPC)) 102 % of control; (dose: 2400.0 mg/kg/injection, schedule: Q04DX003 (sc), vehicle: Klucel (hydroxypropylcellulose) (HPC)) 90 % of control.

Regarding `Cc1ccc(C(=O)Nc2ccc(S(=O)(=O)O)c3cc(S(=O)(=O)O)cc(S(=O)(=O)O)c23)cc1NC(=O)c1cccc(NC(=O)Nc2cccc(C(=O)Nc3cc(C(=O)Nc4ccc(S(=O)(=O)O)c5cc(S(=O)(=O)O)cc(S(=O)(=O)O)c45)ccc3C)c2)c1`, the T/C by setting is: under setting [2], 77 % of control; under setting [3], 56 % of control; (dose: 200.0 mg/kg/injection, schedule: Q04DX003 (ip), vehicle: saline) 51 % of control.

For the compound `CC(=O)C(Cl)C(=O)c1c(C)[nH]n(-c2ccccc2)c1=O` (stereo not drawn), the T/C (dose: 150.0 mg/kg/injection, schedule: Q04DX003 (ip), vehicle: Klucel (hydroxypropylcellulose) (HPC)) was 103 % of control.

`CS(C)=O`: the T/C by setting is: (dose: 750.0 mg/kg/injection, schedule: Q01DX010 (sc), vehicle: saline) 122 % of control; (dose: 3000.0 mg/kg/injection, schedule: Q01DX010 (sc), vehicle: saline) 121 % of control.

Consider `COC1=C(OC)C(=O)C(SC/C=C(\C)CCCC(C)CCCC(C)CCCC(C)C)=CC1=O` (stereo not drawn), for which the T/C reads like this: (dose: 300.0 mg/kg/injection, schedule: Q04DX003 (ip), vehicle: saline with Tween-80) 220 % of control; (dose: 600.0 mg/kg/injection, schedule: Q04DX003 (ip), vehicle: saline with Tween-80) 61 % of control; (dose: 1200.0 mg/kg/injection, schedule: Q04DX003 (ip), vehicle: saline with Tween-80) 75 % of control.

In the case of `C=C(C)C1C2CC3(C)C4(CO4)C4OC4C3(O)C1C(=O)O2` (stereo not drawn), the T/C is 116 % of control (dose: 0.15 mg/kg/injection, schedule: Q04DX003 (ip), vehicle: Klucel (hydroxypropylcellulose) (HPC)); 86 % of control (dose: 0.31 mg/kg/injection, schedule: Q04DX003 (ip), vehicle: Klucel (hydroxypropylcellulose) (HPC)); 106 % of control (dose: 0.62 mg/kg/injection, schedule: Q04DX003 (ip), vehicle: Klucel (hydroxypropylcellulose) (HPC)).

For the compound `COC(COC(=O)N1CCN(C=O)CC1)C1=C(N2CC2)C(=O)C(C)=C(N2CC2)C1=O` (stereo not drawn), the T/C (dose: 3.0 mg/kg/injection, schedule: Q04DX003 (ip), vehicle: saline) is 5 % of control and -16 % of control.

On to `CCCSc1nc(COC(=O)NC)c(COC(=O)NC)n1C`, for which the T/C was 74 % of control under setting [1]; 76 % of control (dose: 60.0 mg/kg/injection, schedule: Q04DX003 (ip), vehicle: saline); 70 % of control (dose: 120.0 mg/kg/injection, schedule: Q04DX003 (ip), vehicle: saline); 26 % of control (dose: 240.0 mg/kg/injection, schedule: Q04DX003 (ip), vehicle: saline).

Consider `CC1=C(/C=C/C(C)=C/C=C/C(C)=C/C=O)C(C)(C)CCC1`, for which the T/C is 84 % of control (dose: 150.0 mg/kg/injection, schedule: Q04DX003 (sc), vehicle: saline with Tween-80); 39 % of control (dose: 300.0 mg/kg/injection, schedule: Q04DX003 (sc), vehicle: saline with Tween-80); 51 % of control (dose: 600.0 mg/kg/injection, schedule: Q04DX003 (sc), vehicle: saline with Tween-80); 34 % of control (dose: 1200.0 mg/kg/injection, schedule: Q04DX003 (sc), vehicle: saline with Tween-80).
